Results: BindingDB's records for doi:10.1021/jm501395b (University of Strasburg, 2015)

Columns and labels:
Oxytocin receptor [1] = target: T1, Oxytocin receptor (Homo sapiens, UniProt P30559); test: Binding affinity to SNAP-tagged oxytocin receptor (unknown origin) expressed in HEK293 cells assessed as dissociation constant after 5 to 120 mins by TR-FRET assay
T1 sequence (P30559 whole entry): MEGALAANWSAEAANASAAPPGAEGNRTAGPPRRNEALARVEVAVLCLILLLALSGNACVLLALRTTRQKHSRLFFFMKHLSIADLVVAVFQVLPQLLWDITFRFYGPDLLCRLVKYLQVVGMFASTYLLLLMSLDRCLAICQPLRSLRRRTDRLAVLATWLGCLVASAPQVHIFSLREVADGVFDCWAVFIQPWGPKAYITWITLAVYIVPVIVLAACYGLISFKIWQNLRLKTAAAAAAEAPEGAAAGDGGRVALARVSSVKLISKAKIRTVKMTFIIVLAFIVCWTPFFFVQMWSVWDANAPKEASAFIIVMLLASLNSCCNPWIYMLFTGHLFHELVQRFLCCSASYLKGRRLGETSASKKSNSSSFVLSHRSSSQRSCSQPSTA

Oxytocin receptor [2] = target: T1, Oxytocin receptor; test: Binding affinity to SNAP-tagged oxytocin receptor (unknown origin) expressed in HEK293 cells assessed as association constant after 5 to 120 mins by TR-FRET assay; conditions: read-out: kon (M-1-s-1)

Row | SMILES | koff (Oxytocin receptor [1]) | kon (Oxytocin receptor [2])
1 | CCN1\C(=C/C=C/C=C/C2=[N+](CC)c3cc(S(=O)(=O)[O-])ccc3C2(C)C)C(C)(CCCC(=O)NCCOCCOCCOCCOCc2nnc(N3CC(Oc4ccc(F)cc4Cl)C3)n2-c2ccc(OC)nc2)c2cc(S(=O)(=O)O)ccc21 (centres undefined) | 0.000182 s⁻¹ | 67200 M⁻¹ s⁻¹
2 | COc1ccc(-n2c(COCCOCCOCCOCCNC(=O)CCCCCNC(=O)c3ccc(-c4c5ccc(=O)cc-5oc5cc(O)ccc45)c(C(=O)O)c3)nnc2N2CC(Oc3ccc(F)cc3Cl)C2)cn1 | 0.000315 s⁻¹ | 59500 M⁻¹ s⁻¹
